Reference: patent US9145346B1, “Process for 2,2,4,4-tetramethylcyclobutane-1,3-diol crystallization” (Eastman Chemical Company, priority 2014, dated 2015)

Assay: Solubility (saturated concentration) of cis-TMCD and trans-TMCD in various solvents, by gas chromatography
Type: physicochemical
Method: All concentrations were measured by gas chromatography. Water concentration was measured by Karl Fischer titrations.
The solubility of cis-TMCD and trans-TMCD in various solvents was determined by charging cis-TMCD, trans-TMCD, and the solvent or solvents of interest into a 120 ml jacketed glass vessel. The vessel was equipped with a stir bar in order to provide mixing and the jacket was used to control the temperature of the vessel contents. The vessel was equipped with charging and sampling ports on top of the vessel.
The slurry was allowed to stand for a time sufficient for the solids to saturate the solvent at the desired temperature. At that time, a sample of the solution was withdrawn from the cell using a fritted pipette so as to remove only the liquid phase. The sample was analyzed for cis-TMCD and trans-TMCD isomer content. These values represent the saturated concentration of each isomer at the sampling temperature.
After this, the cell contents were heated to the next desired temperature and the contents were held for another time interval sufficient to allow the slurry to equilibrate. A sample was then taken of the solution and analyzed. Following this procedure, solubility data was collected up to the final desired temperature.
The reported solubility of each isomer at a given temperature for a given solvent is expressed as a weight % relative to the saturated concentration of the isomer at the highest temperature reported for a given solvent.

SMILES: CC1(C)[C@H](O)C(C)(C)[C@H]1O [trans-TMCD, trans-2,2,4,4-tetramethylcyclobutane-1,3-diol]
- Relative solubility (2-Ethylhexanol, 0.7° C., relative to 89.8° C.): 11% relative wt %
- Relative solubility (2-Ethylhexanol, 12.5° C., relative to 89.8° C.): 15% relative wt %
- Relative solubility (2-Ethylhexanol, 24.7° C., relative to 89.8° C.): 20% relative wt %
- Relative solubility (2-Ethylhexanol, 40.0° C., relative to 89.8° C.): 28% relative wt %
- Relative solubility (2-Ethylhexanol, 49.9° C., relative to 89.8° C.): 36% relative wt %
- Relative solubility (2-Ethylhexanol, 60.2° C., relative to 89.8° C.): 45% relative wt %
- Relative solubility (2-Ethylhexanol, 69.3° C., relative to 89.8° C.): 57% relative wt %
- Relative solubility (2-Ethylhexanol, 79.3° C., relative to 89.8° C.): 75% relative wt %
- Relative solubility (2-Ethylhexanol, 89.8° C., relative to 89.8° C.): 100% relative wt %
- Relative solubility (2-Ethylhexyl Acetate, 5.9° C., relative to 79.4° C.): 6% relative wt %
- Relative solubility (2-Ethylhexyl Acetate, 15.5° C., relative to 79.4° C.): 9% relative wt %
- Relative solubility (2-Ethylhexyl Acetate, 25.1° C., relative to 79.4° C.): 12% relative wt %
- Relative solubility (2-Ethylhexyl Acetate, 40.5° C., relative to 79.4° C.): 22% relative wt %
- Relative solubility (2-Ethylhexyl Acetate, 49.8° C., relative to 79.4° C.): 32% relative wt %
- Relative solubility (2-Ethylhexyl Acetate, 49.9° C., relative to 79.4° C.): 33% relative wt %
- Relative solubility (2-Ethylhexyl Acetate, 60.5° C., relative to 79.4° C.): 48% relative wt %
- Relative solubility (2-Ethylhexyl Acetate, 70.3° C., relative to 79.4° C.): 74% relative wt %
- Relative solubility (2-Ethylhexyl Acetate, 79.4° C., relative to 79.4° C.): 100% relative wt %
- Relative solubility (2-Ethylhexyl Acetate, −5.0° C., relative to 79.4° C.): 4% relative wt %
- Relative solubility (CHDM, 69.0° C., relative to 106.9° C.): 54% relative wt %
- Relative solubility (CHDM, 79.2° C., relative to 106.9° C.): 74% relative wt %
- Relative solubility (CHDM, 88.9° C., relative to 106.9° C.): 80% relative wt %
- Relative solubility (CHDM, 95.6° C., relative to 106.9° C.): 91% relative wt %
- Relative solubility (CHDM, 106.9° C., relative to 106.9° C.): 100% relative wt %
- Relative solubility (Dimethyl Carbonate, 6.2° C., relative to 70.1° C.): 7% relative wt %
- Relative solubility (Dimethyl Carbonate, 16.3° C., relative to 70.1° C.): 9% relative wt %
- Relative solubility (Dimethyl Carbonate, 25.7° C., relative to 70.1° C.): 14% relative wt %
- Relative solubility (Dimethyl Carbonate, 40.5° C., relative to 70.1° C.): 27% relative wt %
- Relative solubility (Dimethyl Carbonate, 54.7° C., relative to 70.1° C.): 54% relative wt %
- Relative solubility (Dimethyl Carbonate, 70.1° C., relative to 70.1° C.): 100% relative wt %
- Relative solubility (Ethanol, 5.3° C., relative to 60.3° C.): 51% relative wt %
- Relative solubility (Ethanol, 14.3° C., relative to 60.3° C.): 55% relative wt %
- Relative solubility (Ethanol, 25.5° C., relative to 60.3° C.): 76% relative wt %
- Relative solubility (Ethanol, 39.9° C., relative to 60.3° C.): 82% relative wt %
- Relative solubility (Ethanol, 50.1° C., relative to 60.3° C.): 92% relative wt %
- Relative solubility (Ethanol, 60.3° C., relative to 60.3° C.): 100% relative wt %
- Relative solubility (Ethyl Acetate, 4.2° C., relative to 54.9° C.): 16% relative wt %
- Relative solubility (Ethyl Acetate, 15.0° C., relative to 54.9° C.): 25% relative wt %
- Relative solubility (Ethyl Acetate, 26.2° C., relative to 54.9° C.): 38% relative wt %
- Relative solubility (Ethyl Acetate, 40.5° C., relative to 54.9° C.): 62% relative wt %
- Relative solubility (Ethyl Acetate, 54.9° C., relative to 54.9° C.): 100% relative wt %
- Relative solubility (Ethyl Acetate, −5.1° C., relative to 54.9° C.): 12% relative wt %
- Relative solubility (Ethylene Glycol, 26.5° C., relative to 91.4° C.): 24% relative wt %
- Relative solubility (Ethylene Glycol, 36.2° C., relative to 91.4° C.): 32% relative wt %
- Relative solubility (Ethylene Glycol, 48.5° C., relative to 91.4° C.): 44% relative wt %
- Relative solubility (Ethylene Glycol, 61.5° C., relative to 91.4° C.): 61% relative wt %
- Relative solubility (Ethylene Glycol, 72.1° C., relative to 91.4° C.): 68% relative wt %
- Relative solubility (Ethylene Glycol, 82.2° C., relative to 91.4° C.): 82% relative wt %
- Relative solubility (Methanol, 16.9° C., relative to 41.3° C.): 82% relative wt %
- Relative solubility (Methanol, 25.6° C., relative to 41.3° C.): 89% relative wt %
- Relative solubility (Methanol, 41.3° C., relative to 41.3° C.): 100% relative wt %
- Relative solubility (Methanol, −2.5° C., relative to 41.3° C.): 70% relative wt %
- Relative solubility (Methyl Acetate, 5.9° C., relative to 49.8° C.): 14% relative wt %
- Relative solubility (Methyl Acetate, 15.5° C., relative to 49.8° C.): 22% relative wt %
- Relative solubility (Methyl Acetate, 25.1° C., relative to 49.8° C.): 33% relative wt %
- Relative solubility (Methyl Acetate, 40.5° C., relative to 49.8° C.): 59% relative wt %
- Relative solubility (Methyl Acetate, 49.8° C., relative to 49.8° C.): 100% relative wt %
- Relative solubility (Methyl Acetate, −5.0° C., relative to 49.8° C.): 9% relative wt %
- Relative solubility (Methyl i-Butyl Carbinol, 9.4° C., relative to 81.9° C.): 18% relative wt %
- Relative solubility (Methyl i-Butyl Carbinol, 20.4° C., relative to 81.9° C.): 23% relative wt %
- Relative solubility (Methyl i-Butyl Carbinol, 31.1° C., relative to 81.9° C.): 29% relative wt %
- Relative solubility (Methyl i-Butyl Carbinol, 40.0° C., relative to 81.9° C.): 39% relative wt %
- Relative solubility (Methyl i-Butyl Carbinol, 49.5° C., relative to 81.9° C.): 47% relative wt %
- Relative solubility (Methyl i-Butyl Carbinol, 60.0° C., relative to 81.9° C.): 60% relative wt %
- Relative solubility (Methyl i-Butyl Carbinol, 69.5° C., relative to 81.9° C.): 77% relative wt %
- Relative solubility (Methyl i-Butyl Carbinol, 81.9° C., relative to 81.9° C.): 100% relative wt %
- Relative solubility (i-Butyl Acetate, 4.8° C., relative to 90.1° C.): 6% relative wt %
- Relative solubility (i-Butyl Acetate, 16.9° C., relative to 90.1° C.): 9% relative wt %
- Relative solubility (i-Butyl Acetate, 25.6° C., relative to 90.1° C.): 12% relative wt %
- Relative solubility (i-Butyl Acetate, 41.3° C., relative to 90.1° C.): 21% relative wt %
- Relative solubility (i-Butyl Acetate, 56.2° C., relative to 90.1° C.): 36% relative wt %
- Relative solubility (i-Butyl Acetate, 70.2° C., relative to 90.1° C.): 58% relative wt %
- Relative solubility (i-Butyl Acetate, 90.1° C., relative to 90.1° C.): 100% relative wt %
- Relative solubility (i-Butyl Acetate, −2.5° C., relative to 90.1° C.): 5% relative wt %
- Relative solubility (n-Butanol, 5.9° C., relative to 60.5° C.): 44% relative wt %
- Relative solubility (n-Butanol, 15.5° C., relative to 60.5° C.): 49% relative wt %
- Relative solubility (n-Butanol, 25.1° C., relative to 60.5° C.): 58% relative wt %
- Relative solubility (n-Butanol, 40.5° C., relative to 60.5° C.): 72% relative wt %
- Relative solubility (n-Butanol, 49.8° C., relative to 60.5° C.): 86% relative wt %
- Relative solubility (n-Butanol, 49.9° C., relative to 60.5° C.): 86% relative wt %
- Relative solubility (n-Butanol, 60.5° C., relative to 60.5° C.): 100% relative wt %
- Relative solubility (n-Butanol, −5.0° C., relative to 60.5° C.): 39% relative wt %
- Relative solubility (n-Butyl Propionate, 6.5° C., relative to 91.9° C.): 5% relative wt %
- Relative solubility (n-Butyl Propionate, 16.8° C., relative to 91.9° C.): 8% relative wt %
- Relative solubility (n-Butyl Propionate, 27.7° C., relative to 91.9° C.): 13% relative wt %
- Relative solubility (n-Butyl Propionate, 41.7° C. (sample 4), relative to 91.9° C.): 16% relative wt %
- Relative solubility (n-Butyl Propionate, 41.7° C. (sample 5), relative to 91.9° C.): 22% relative wt %
- Relative solubility (n-Butyl Propionate, 52.0° C., relative to 91.9° C.): 32% relative wt %
- Relative solubility (n-Butyl Propionate, 61.5° C., relative to 91.9° C.): 44% relative wt %
- Relative solubility (n-Butyl Propionate, 69.1° C., relative to 91.9° C.): 59% relative wt %
- Relative solubility (n-Butyl Propionate, 80.7° C., relative to 91.9° C.): 78% relative wt %
- Relative solubility (n-Butyl Propionate, 91.9° C., relative to 91.9° C.): 100% relative wt %
- Relative solubility (n-Propyl Propionate, 7.0° C., relative to 72.2° C.): 11% relative wt %
- Relative solubility (n-Propyl Propionate, 17.1° C., relative to 72.2° C.): 15% relative wt %
- Relative solubility (n-Propyl Propionate, 26.7° C., relative to 72.2° C.): 22% relative wt %
- Relative solubility (n-Propyl Propionate, 37.4° C., relative to 72.2° C.): 29% relative wt %
- Relative solubility (n-Propyl Propionate, 42.4° C., relative to 72.2° C.): 37% relative wt %
- Relative solubility (n-Propyl Propionate, 52.2° C., relative to 72.2° C.): 53% relative wt %
- Relative solubility (n-Propyl Propionate, 62.9° C., relative to 72.2° C.): 76% relative wt %
- Relative solubility (n-Propyl Propionate, 72.2° C., relative to 72.2° C.): 100% relative wt %
